Like-named read-outs stand apart in the source and are kept apart here.
Legend:
[1] = tested on: CD8+ T cells, macrophages, dendritic cells; assay: Immune cells in tumors and spleens of treated mice; format: in vivo
Text: The combination therapy of the invention provides many beneficial and unexpected therapeutic effects as evidenced by mice treated with SEQ ID NO: 2, the murine surrogate for SEQ ID NO: 1.

[2] = tested on: MC38 murine colon carcinoma cells; conditions: for Median TTE: endpoint 1000 mm^3, 53 days; for Regressions CR: number of complete regressions; for Regressions PR: number of partial regressions; for Regressions TFS: tumor free survivors
[3] = tested on: CD8+T cells, NK cells, Tregs; conditions: first in human clinical data, U.S. Patent Publication Number 20210038684A1; cited from earlier work
[4] = Group 2: Lenvatinib 10 mg/kg po qd × 28 (vehicle 1 sc)
[5] = Group 2: Lenvatinib 10 mg/kg po qd × 28
[6] = Group 3: Lenvatinib 30 mg/kg po qd × 28 (vehicle 1 sc)
[7] = Group 3: Lenvatinib 30 mg/kg po qd × 28
[8] = Group 4: Lenvatinib 100 mg/kg po qd × 28 (vehicle 1 sc)
[9] = Group 4: Lenvatinib 100 mg/kg po qd × 28

Molecule	macrophages [1]	% TGD [2, 4] [%]	T − C [2, 4] [days]	Median TTE [2, 4] [days]	Regressions CR [2, 5]	Regressions PR [2, 5]	Regressions TFS [2, 5]	% TGD [2, 6] [%]	T − C [2, 6] [days]	Median TTE [2, 6] [days]	Regressions CR [2, 7]	Regressions PR [2, 7]	Regressions TFS [2, 7]	% TGD [2, 8] [%]	T − C [2, 8] [days]	Median TTE [2, 8] [days]	Regressions CR [2, 9]	Regressions PR [2, 9]	Regressions TFS [2, 9]	expansion of CD8+T cells and NK cells versus Tregs [3]
COc1cc2nccc(Oc3ccc(NC(=O)NC4CC4)c(Cl)c3)c2cc1C(N)=O [Lenvatinib, 4-[3-Chloro-4-(cyclopropylaminocarbonyl)aminophenoxy]-7-methoxy-6-quinolinecarboxamide]	decrease in macrophages	168	24.0	38.3	0	1	0	162	23.1	37.4	0	0	0	164	23.4	37.7	0	0	0	
fusion protein of SEQ ID NO: 1: circularly permuted (cp) IL-2 variant fused to the extracellular domain of the IL-2Rα portion of the IL-2 receptor (protein, Human cpIL-2IL-2R-alpha, circularly permuted (cp) IL-2 variant fused to the extracellular domain of the IL-2Rα portion of the IL-2 receptor) SKNFHLRPRDLISNINVIVLELKGSETTFMCEYADETATIVEFLNRWITFSQSIISTLTGGSSSTKKTQLQLEHLLLDLQMILNGINNYKNPKLTRMLTFKFYMPKKATELKHLQCLEEELKPLEEVLNLAQGSGGGSELCDDDPPEIPHATFKAMAYKEGTMLNCECKRGFRRIKSGSLYMLCTGNSSHSSWDNQCQCTSSATRNTTKQVTPQPEEQKERKTTEMQSPMQPVDQASLPGHCREPPPWENEATERIYHFVVGQMVYYQCVQGYRALHRGPAESVCKMTHGKTRWTQPQLICTG																				activates expansion of CD8+T cells and NK cells in a dose dependent manner in the absence of dose dependent activation of Tregs

— patent US11834483B2, “Immunostimulatory agents in combination with angiogenesis inhibitors” (Alkermes Pharma Ireland Limited, priority 2020, dated 2023)
